{
  "source": "patent US9631225B2",
  "about": "“Luciferase-based assays” (Promega Corporation, priority 2002, dated 2017)",
  "key": {"[1]": {"target": "T1, firefly luciferase (QuantiLum® luciferase) (Photinus pyralis, UniProt P08659)", "T1 construct": "purchased Promega Corporation", "T1 sequence (P08659 whole entry)": "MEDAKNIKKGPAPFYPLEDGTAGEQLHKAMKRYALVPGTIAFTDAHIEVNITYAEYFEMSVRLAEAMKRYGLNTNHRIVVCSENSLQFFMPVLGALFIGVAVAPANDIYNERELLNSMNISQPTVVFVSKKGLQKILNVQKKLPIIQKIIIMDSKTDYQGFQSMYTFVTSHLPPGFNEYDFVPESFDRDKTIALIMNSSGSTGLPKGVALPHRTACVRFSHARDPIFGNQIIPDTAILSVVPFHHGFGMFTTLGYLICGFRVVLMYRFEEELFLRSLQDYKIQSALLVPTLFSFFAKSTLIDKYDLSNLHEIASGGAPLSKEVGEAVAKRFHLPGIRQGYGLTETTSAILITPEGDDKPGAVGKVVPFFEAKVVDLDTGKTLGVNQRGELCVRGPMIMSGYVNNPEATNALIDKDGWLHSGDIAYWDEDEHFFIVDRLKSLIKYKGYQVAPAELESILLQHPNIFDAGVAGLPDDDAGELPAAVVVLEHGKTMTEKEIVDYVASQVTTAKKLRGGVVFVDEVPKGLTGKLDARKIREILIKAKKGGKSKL", "experiment": "Protection of firefly luciferase reaction from inhibition by isoliquirtigenin (ILT)", "assay_type": "biochemical", "conditions": "ILT 100 μM", "procedure": "(§1) In this experiment, several tolerance enhancing agents were evaluated for their ability to protect luciferases from a known luciferase inhibitor, isoliquirtigenin (ILT) (100 μM, Sigma Chemical). ILT was added to luciferase reactions and the potential tolerance enhancing agents were evaluated for their ability to protect the luciferase from inhibition.\nThe basic firefly luciferase reactions contained 20 mM HEPES (Sigma Chemical) at pH 8.0, 6.4 mM Magnesium Sulfate (Fisher Scientific), 20 mM Dithiothreitol (City Chemical), 0.63 mM Coenzyme A (Pharmacia Biochemical), 0.4 mM EDTA (Sigma Chemical), 4.0 μM Luciferin (Promega Biosciences), 0.56 mM ATP (Pharmacia Biochemical), and 1.3×10^−6 mg/ml firefly luciferase (QuantiLum® luciferase, Promega Corporation).\n(§2) ILT was solubilized at 100 mM in dimethyl sulfoxide (Sigma Chemical). ILT was diluted 1:1000 and the protectors were diluted into the reaction mix before the reaction was initiated by the addition of luciferase.\n(§3) Reaction volume for each sample was 100 μl. Luminescence was integrated for 0.5 seconds per sample in a Turner Biosystems Veritas® luminometer immediately after luciferase was added to the reactions and the reactions were mixed. All measurements were done in triplicate.\n(§4) The relative protection provided by each compound is calculated as difference between the luminescence generated in the presence and the absence of the protector divided by the total amount of inhibition as represented by the following equation: (L1−L2)/(L3−L4) wherein L1 represents luminescence with inhibitor and tolerance enhancing agent; L2 represents luminescence with inhibitor and no tolerance enhancing agent; L3 represents luminescence with no inhibitor and no tolerance enhancing agent; and L4 represents luminescence with inhibitor and no tolerance enhancing agent.\n(§5) The relative protection in the presence of no tolerance enhancing agent, therefore, is 0% and in the absence of an inhibitor is 100%. The reactions used to generate luminescence in the absence of either inhibitor or tolerance enhancing agent still contained the solvent utilized to solubilize the inhibitor with which the reaction was to be compared."}, "Renilla luciferase": {"target": "T2, Renilla luciferase (Renilla reniformis, UniProt P27652)", "T2 construct": "purchased ChemiCon Chemicals", "T2 sequence (P27652 1-311)": "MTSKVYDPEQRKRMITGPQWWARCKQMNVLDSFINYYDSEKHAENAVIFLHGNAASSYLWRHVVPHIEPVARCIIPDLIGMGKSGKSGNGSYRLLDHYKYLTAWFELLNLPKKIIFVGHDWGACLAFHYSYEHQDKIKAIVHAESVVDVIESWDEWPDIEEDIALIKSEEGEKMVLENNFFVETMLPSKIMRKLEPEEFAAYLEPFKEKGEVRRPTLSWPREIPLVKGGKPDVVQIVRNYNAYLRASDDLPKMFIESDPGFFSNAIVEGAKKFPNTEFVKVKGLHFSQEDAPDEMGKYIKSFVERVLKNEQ", "experiment": "Protection of Renilla luciferase reaction from inhibition by isoliquirtigenin (ILT)", "assay_type": "biochemical", "conditions": "ILT 100 μM", "procedure": "as §1\nThe basic Renilla luciferase reactions contained 100 mM Potassium Phosphate buffer (Sigma Chemical) at pH 7.4, 500 mM Sodium Chloride (Fisher Scientific), 1.0 mM EDTA (Sigma Chemical), 200 nM Coelenterazine (Promega Biosciences), 0.1% Gelatin (Sigma Chemical) and 0.12 nmol/ml Renilla luciferase (ChemiCon Chemicals).\nas §2, §3, §4, §5"}, "[2]": {"conditions": "protector reaction concentration 0.02%"}, "[3]": {"conditions": "protector reaction concentration 0.10%"}},
  "data": [
    {"molecule": "C[C@H](CCC(=O)NCCC[N+](C)(C)CCCS(=O)(=O)[O-])[C@H]1CC[C@H]2[C@@H]3[C@H](O)C[C@@H]4C[C@H](O)CC[C@]4(C)[C@H]3C[C@H](O)[C@]12C", "note": "[CHAPS® detergent, 3-([3-Cholamidopropyl]dimethylammonio)-1-propanesulfonate]", "values": [
      {"measurement": "Relative Protection Against ILT", "setting": "[1]; [2]", "value": 18, "unit": "%"},
      {"measurement": "Relative Protection Against ILT", "setting": "[1]; [3]", "value": 57, "unit": "%"},
      {"measurement": "Relative Protection Against ILT", "setting": "Renilla luciferase; [3]", "value": 14, "unit": "%"},
      {"measurement": "Relative Protection Against ILT", "setting": "Renilla luciferase; protector reaction concentration 0.50%", "value": 97, "unit": "%"}
    ]},
    {"molecule": "CCCCCCCCCCCCCCCC[N+](C)(C)C.[Br-]", "note": "[CTAB, cetyltrimethylammonium]", "values": [
      {"measurement": "Relative Protection Against ILT", "setting": "[1]; [2]", "value": 100, "unit": "%"},
      {"measurement": "Relative Protection Against ILT", "setting": "Renilla luciferase; [3]", "value": 95, "unit": "%"}
    ]},
    {"molecule": "OC[C@H]1O[C@@](CO)(O[C@H]2O[C@H](CO)[C@@H](O)[C@H](O)[C@H]2O)[C@@H](O)[C@@H]1O", "note": "[Sucrose]", "values": [
      {"measurement": "Relative Protection Against ILT", "setting": "[1]; protector reaction concentration 0.5% (w:v)", "value": 32, "unit": "%"},
      {"measurement": "Relative Protection Against ILT", "setting": "Renilla luciferase; protector reaction concentration 0.10% (w:v)", "value": 24, "unit": "%"}
    ]},
    {"molecule": "OC[C@H]1O[C@@H]2O[C@H]3[C@H](O)[C@@H](O)[C@@H](O[C@H]4[C@H](O)[C@@H](O)[C@@H](O[C@H]5[C@H](O)[C@@H](O)[C@@H](O[C@H]6[C@H](O)[C@@H](O)[C@@H](O[C@H]7[C@H](O)[C@@H](O)[C@@H](O[C@H]1[C@H](O)[C@H]2O)O[C@@H]7CO)O[C@@H]6CO)O[C@@H]5CO)O[C@@H]4CO)O[C@@H]3CO", "note": "[α-Cyclodextrin, α-Cyclodextrin (Cyclohexaamylose)]", "values": [
      {"measurement": "Relative Protection Against ILT", "setting": "[1]; protector reaction concentration 7 mM", "value": 61, "unit": "%"},
      {"measurement": "Relative Protection Against ILT", "setting": "Renilla luciferase; protector reaction concentration 1.4 mM", "value": 60, "unit": "%"}
    ]},
    {"molecule": "Deoxycholate", "values": [
      {"measurement": "Relative Protection Against ILT", "setting": "[1]; [2]", "value": 81, "unit": "%"},
      {"measurement": "Relative Protection Against ILT", "setting": "Renilla luciferase; [3]", "value": 72, "unit": "%"}
    ]},
    {"molecule": "nonylphenol polyethylene glycol ether (C9H19C6H—(OCH2CH2)9OH) [Tergitol NP-9® detergent]", "values": [
      {"measurement": "Relative Protection Against ILT", "setting": "[1]; [2]", "value": 88, "unit": "%"},
      {"measurement": "Relative Protection Against ILT", "setting": "Renilla luciferase; [3]", "value": 97, "unit": "%"}
    ]}
  ]
}
